The target of this assay is D2 receptor (Homo sapiens, UniProt P14416). Kind of assay: [3H]Thymidine uptake assay for D2 intrinsic activity. Conditions: test compound 1 μM, 1 μM Quinpirole = 100% intrinsic activity. It is filed as cell-based.
Sequence of D2 receptor (P14416 whole entry): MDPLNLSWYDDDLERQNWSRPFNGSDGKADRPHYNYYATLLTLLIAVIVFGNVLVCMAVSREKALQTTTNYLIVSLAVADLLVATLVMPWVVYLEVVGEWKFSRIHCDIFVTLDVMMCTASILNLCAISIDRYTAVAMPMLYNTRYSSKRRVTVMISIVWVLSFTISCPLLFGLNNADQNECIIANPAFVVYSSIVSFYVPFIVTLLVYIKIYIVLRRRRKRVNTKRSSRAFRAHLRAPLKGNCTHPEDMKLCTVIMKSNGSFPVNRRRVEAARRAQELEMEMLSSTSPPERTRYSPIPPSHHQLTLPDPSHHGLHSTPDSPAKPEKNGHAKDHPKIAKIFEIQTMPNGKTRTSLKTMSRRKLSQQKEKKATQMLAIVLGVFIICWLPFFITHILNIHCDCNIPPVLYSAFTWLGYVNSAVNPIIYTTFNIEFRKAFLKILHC

Consider `O=C1CCc2ccc(CCCCCN3CCN(c4ccc(F)c(Cl)c4Cl)CC3)nc2N1` [Example C11, 7-{5-[4-(2,3-Dichloro-4-fluoro-phenyl)-piperazin-1-yl]-pentyl}-3,4-dihydro-1H-[1,8]naphthyridin-2-one], for which the Emax at 1 µM (Table 1) turned out to be 7%.
As to `O=C1CCc2ccc(CCCCCN3CCN(c4cccc5c4CCCC5)CC3)nc2N1` [Example C12, 7-{5-[4-(5,6,7.8-Tetrahydro-naphthalen-1-yl)-piperazin-1-yl]-pentyl}-3,4-dihydro-1H-[1,8]naphthyridin-2-one], under “Table 1”, the Emax at 1 µM was found to be 12%.
The same measure, in the same setting: the same measure for `O=C1CCc2ccc(CCCCCN3CCN(c4cccc5ccccc45)CC3)nc2N1` [Example C13, 7-[5-(4-Naphthalen-1-yl-piperazin-1-yl)-pentyl]-3,4-dihydro-1H-[1,8]naphthyridin-2-one]: 14%; for `O=C1CCc2ccc(CCCCCN3CCN(c4ccc(F)cc4Cl)CC3)nc2N1` [Example C14, 7-{5-[4-(2-Chloro-4-fluoro-phenyl)-piperazin-1-yl]-pentyl}-3,4-dihydro-1H-[1,8]naphthyridin-2-one]: 10%; for `Cc1c(F)ccc(N2CCN(CCCCCc3ccc4c(n3)NC(=O)CC4)CC2)c1Cl` [Example C15, 7-{5-[4-(2-Chloro-4-fluoro-3-methyl-phenyl)-piperazin-1-yl]-pentyl}-3,4-dihydro-1H-[1,8]naphthyridin-2-one]: 8%.
With `Cc1cccc(N2CCN(CCCCCc3ccc4c(n3)NC(=O)CC4)CC2)n1` [Example C16, 7-{5-[4-(6-Methyl-pyridin-2-yl)-piperazin-1-yl]-pentyl}-3,4-dihydro-1H-[1,8]naphthyridin-2-one], under “Table 1”, the Emax at 1 µM amounted to 34%.
In the case of `CCc1cccc(N2CCN(CCCCCc3ccc4c(n3)NC(=O)CC4)CC2)n1` [Example C17, 7-{5-[4-(6-Ethyl-pyridin-2-yl)-piperazin-1-yl]-pentyl}-3,4-dihydro-1H-[1,8]naphthyridin-2-one], for the setting “Table 1”, the Emax at 1 µM is 21%.
Take `O=C1CCc2ccc(CCCCCN3CCN(c4cccc(C5CC5)n4)CC3)nc2N1` [Example C18, 7-{5-[4-(6-Cyclopropyl-pyridin-2-yl)-piperazin-1-yl]-pentyl}-3,4-dihydro-1H-[1,8]naphthyridin-2-one]: the Emax at 1 µM (Table 1) was determined as 34%.
Where the note is “Table 1”, `Cc1cc(C)nc(N2CCN(CCCCCc3ccc4c(n3)NC(=O)CC4)CC2)c1` [Example C19, 7-{5-[4-(4,6-Dimethyl-pyridin-2-yl)-piperazin-1-yl]-pentyl}-3,4-dihydro-1H-[1,8]naphthyridin-2-one] came in with a maximal effect (Emax) at 1 µM of 13%.
For `O=C1CCc2cc(F)c(OCCCCN3CCN(c4cccc5cccnc45)CC3)nc2N1` [Example D1′, 6-Fluoro-7-[4-(4-quinolin-8-yl-piperazin-1-yl)-butoxy]-3,4-dihydro-1H-[1,8]naphthyridin-2-one], the Emax at 1 µM (Table 2) was found to be 24%.
With `O=C1CCc2cc(F)c(OCCCCN3CCN(c4cccc5cnccc45)CC3)nc2N1` [Example D2′, 6-Fluoro-7-[4-(4-isoquinolin-5-yl-piperazin-1-yl)-butoxy]-3,4-dihydro-1H-[1,8]naphthyridin-2-one], for the setting “Table 2”, the Emax at 1 µM worked out at 40%.
Compound `Cc1cc2ccc(OCCCCN3CCN(c4cccc(Cl)c4Cl)CC3)nc2[nH]c1=O` [Example D4, 7-{4-[4-(2,3-Dichloro-phenyl)-piperazin-1-yl]-butoxy}-3-methyl-1H-[1,8]naphthyridin-2-one] yielded an Emax at 1 µM (Table 1) of 16%.
`O=c1[nH]c2nc(OCCCCN3CCN(c4cccc(Cl)c4Cl)CC3)ccc2cc1F` [Example D9, 7-{4-[4-(2,3-Dichloro-phenyl)-piperazin-1-yl]-butoxy}-3-fluoro-1H-[1,8]naphthyridin-2-one] displayed an Emax at 1 µM (Table 1) of 15%.
The compound `O=c1[nH]c2nc(OCCCCN3CCN(c4cccc5ccccc45)CC3)ccc2cc1F` [Example D10, 3-Fluoro-7-[4-(4-naphthalen-1-yl-piperazin-1-yl)-butoxy]-1H-[1,8]naphthyridin-2-one] yielded an Emax at 1 µM (Table 1) of 22%.
`O=c1[nH]c2nc(OCCCCN3CCN(c4cccc5ccccc45)CC3)ccc2cc1CC(F)(F)F` [Example D11, 7-[4-(4-Naphthalen-1-yl-piperazin-1-yl)-butoxy]-3-(2,2,2-trifluoro-ethyl)-1H-[1,8]naphthyridin-2-one] gave an Emax at 1 µM (Table 1) of 30%.
Still for that read-out and setting: the same measure for `CC1(C)Cc2ccc(CCCCCN3CCN(c4cccc(Cl)c4Cl)CC3)nc2NC1=O` [Example D12, 7-{5-[4-(2,3-Dichloro-phenyl)-piperazin-1-yl]-pentyl}-3,3-dimethyl-3,4-dihydro-1H-[1,8]naphthyridin-2-one]: 3%.
For `CC1(C)Cc2ccc(OCCCCN3CCN(c4cccc(Cl)c4Cl)CC3)nc2NC1=O` [Example D13, 7-{4-[4-(2,3-Dichloro-phenyl)-piperazin-1-yl]-butoxy}-3,3-dimethyl-3,4-dihydro-1H-[1,8]naphthyridin-2-one], the Emax at 1 µM (Table 1) worked out at 19%.
`CC1(C)C(=O)Nc2nc(OCCCCN3CCN(c4cccc(Cl)c4Cl)CC3)ccc2C1=O` [Example D14, 7-{4-[4-(2,3-Dichloro-phenyl)-piperazin-1-yl]-butoxy}-3,3-dimethyl-1H-[1,8]naphthyridine-2,4-dione] registered an Emax at 1 µM (Table 1) of 3%.
The compound `CC1(C)C(=O)Nc2nc(OCCCCN3CCN(c4cccc(Cl)c4Cl)CC3)ccc2C1O` (stereo not shown) [Example D15, 7-{4-[4-(2,3-Dichloro-phenyl)-piperazin-1-yl]-butoxy}-4-hydroxy-3,3-dimethyl-3,4-dihydro-1H-[1,8]naphthyridin-2-one] returned a maximal effect (Emax) at 1 µM (Table 1) of 25%.
Regarding `CC1(C)CC(=O)Nc2nc(OCCCCN3CCN(c4cccc5ccccc45)CC3)ccc21` [Example D16, 4,4-Dimethyl-7-[4-(4-naphthalen-1-yl-piperazin-1-yl)-butoxy]-3,4-dihydro-1H-[1,8]naphthyridin-2-one], the Emax at 1 µM (Table 1) turned out to be 31%.
`CC1(C)CC(=O)Nc2nc(OCCCCN3CCN(c4cccc(Cl)c4Cl)CC3)ccc21` [Example D17, 7-{4-[4-(2,3-Dichloro-phenyl)-piperazin-1-yl]-butoxy}-4,4-dimethyl-3,4-dihydro-1H-[1,8]naphthyridin-2-one]: for the setting “Table 1”, the Emax at 1 µM worked out at 29%.
In turn, `CC1(C)CC(=O)Nc2nc(OCCCCN3CCN(c4cccc5c4CCCC5)CC3)ccc21` [Example D18, 4,4-Dimethyl-7-{4-[4-(5,6,7,8-tetrahydro-naphthalen-1-yl)-piperazin-1-yl]-butoxy}-3,4-dihydro-1H-[1,8]naphthyridin-2-one] showed an Emax at 1 µM (Table 1) of 37%.
Compound `CC1(C)CC(=O)Nc2nc(OCCCCN3CCN(c4cccc5c4CCC5)CC3)ccc21` [Example D19, 7-[4-(4-Indan-4-yl-piperazin-1-yl)-butoxy]-4,4-dimethyl-3,4-dihydro-1H-[1,8]naphthyridin-2-one] showed an Emax at 1 µM (Table 1) of 39%.
The compound `Cc1cccc(N2CCN(CCCCOc3ccc4c(n3)NC(=O)CC4(C)C)CC2)c1Cl` [Example D20, 7-{4-[4-(2-Chloro-3-methyl-phenyl)-piperazin-1-yl]-butoxy}-4,4-dimethyl-3,4-dihydro-1H-[1,8]naphthyridin-2-one] registered a maximal effect (Emax) at 1 µM (Table 1) of 44%.
The compound `Cc1c(Cl)cccc1N1CCN(CCCCOc2ccc3c(n2)NC(=O)CC3(C)C)CC1` [Example D21, 7-{4-[4-(3-Chloro-2-methyl-phenyl)-piperazin-1-yl]-butoxy}-4,4-dimethyl-3,4-dihydro-1H-[1,8]naphthyridin-2-one] had an Emax at 1 µM (Table 1) of 24%.

As a reminder, the Emax is the greatest response seen or fitted, relative to the assay's reference.

These data come from patent US7160888B2, “[1,8]naphthyridin-2-ones and related compounds for the treatment of schizophrenia” (Warner Lambert Company LLC, priority 2003, dated 2007).
